Consider 1 compound from patent EP0073100B1, “Beta-lactam compounds, their preparation and their use” (BEECHAM GROUP PLC, priority 1981, dated 1983).

Converted amounts (≈) assume the structure as drawn. A value given as a limit tells only on which side of the number the result lay.

Common to all, as to test: MIC, growth inhibition in nutrient broth
Assay type in all cases: cell-based

One assay has as its system Strep. faecalis. To be noted: Enterococcus faecalis.
The test system of a further assay is B. subtilis. The settings on record: Bacillus subtilis.
A further assay concerns Staph. aureus Oxford. To be noted: Staphylococcus aureus.
For another assay, the system named is S. typhimurium. To be noted: Salmonella enterica.
In a further assay the test system is Strep. pyogenes. To be noted: Streptococcus pyogenes.
A further assay deals with E. coli. To be noted: Escherichia coli.
Another assay relates to Klebsiella aerogenes.
The subject of the next assay is Staph. aureus Russell. The settings on record: Staphylococcus aureus, Staph. aureus Russell (β-lactamase-producing benylpenicillin-resistant strain).
For a further assay, the system named is Proteus mirabilis.

As usually defined, the MIC is the least concentration at which growth counts as inhibited. Higher therefore signals weaker potency. For `COC(=O)C1C[C@@H]2[C@H](NC(=O)COc3ccccc3)C(=O)N2[C@H]1C(=O)O` (mixture of isomers) [compound 17, (2RS, 5RS, 6SR) 1-Aza-3-methoxycarbonyl-6-phenoxyacetamidobicyclo [3.2.0] -heptan-7-one-2-carboxylic acid], the minimum inhibitory concentration (MIC) is 8 µg/mL (≈ 22.1 µM) against Strep. faecalis; 2 µg/mL (≈ 5.52 µM) in the assay with B. subtilis; less than 0.5 µg/mL in the assay with Staph. aureus Oxford; 250 µg/mL (≈ 690 µM) in the assay on S. typhimurium; less than 10.5 µg/mL against Strep. pyogenes; 250 µg/mL (≈ 690 µM) against E. coli. The minimum inhibitory concentration (MIC) with Klebsiella aerogenes was 250 µg/mL (≈ 690 µM); in the assay on Staph. aureus Russell, 62 µg/mL (≈ 171 µM); in the assay on Proteus mirabilis, 62 µg/mL (≈ 171 µM).
